Results: publication PMC5471453, “Dual-targeted peptide-conjugated multifunctional fluorescent probe with AIEgen for efficient nucleus-specific imaging and long-term tracing of cancer cells” (Chemical Science, 2017)

What was measured:
A375 cells = assay: Long-term tracing of cancer cells over culture cycles (CLSM); assay type: cell-based, human; settings: 3 μM for 4 h, after the fifth culture cycle (5 d)
Experimental: Due to reverse diffusion, most conventional dyes cannot be retained in living cells for more than a few hours.[35] Although some cell-tracker fluorescence dyes, for example Hoechst stains, can remain in viable cells for a few generations, they bind to DNA and thus interfere with DNA replication during cell division which can be cytotoxic. […] A375 cells were incubated separately with each of 3 μM TCNTP and Hoechst 33258. After 4 h incubation, the probe (or dye) was discarded and the labelled cells continued to be cultured overnight. Then the labelled cells were digested and divided into two dishes for another overnight incubation, referred to as one culture cycle. […] While the yellow fluorescence of TCNTP mainly distributed to cytoplasm for the third culture cycle (3 d) due to degradation of peptides and redistribution of the probe during cell division. […]
Fig. 5 The CLSM imaging of A375 cells treated with 3 μM TCNTP (A) and 3 μM Hoechst 33258 (B) for 4 h with further incubation for 1 d, 3 d and 5 d in cell culturing conditions. (C) The average fluorescence intensity of TCNTP and Hoechst 33258 in 60× microscopic field (the insets). […]
The cells stained by TCNTP were still visible even after the tenth culture cycle (Fig. S20 ^†), whereas very weak fluorescence signals were detected in the Hoechst 33258-stained cells after the third culture cycle (Fig. 5B). […]

[1] = test system: MDA-MB-231 cells, HT-1080 cells, A375 cells and HLF cells; assay: MTT assay of cell viability; assay type: cell-based; settings: 1 μM, 5 μM and 10 μM for 48 h in triplicate, 96-well plate; absorbance 570 nm; all the cell lines
Experimental: Japan). All fluorescence images were analysed with FV10-ASW V4.0 Image software (Olympus). Three-dimensional map of cells were used 3D rendering by Imaris (Andor-Bitplane, Zurich). Co-localization analysis were used Image-Pro Plus 6.0.
The cytotoxic potential of PyTPE, Hoechst 33258 and TCNTP was assessed using the MTT assay. MDA-MB-231 cells, HT-1080 cells, A375cells and HLF cells were respectively treated with PyTPE (1 μM, 5 μM and 10 μM), Hoechst 33258 (1 μM, 5 μM and 10 μM) and TCNTP (1 μM, 5 μM and 10 μM) for 48 h in triplicate in a 96-well plate. The absorbance of MTT at 570 nm was recorded by the Infinite M200 PRO […]
Fig. S21 Metabolic viability of (A) MDA-MB-231 cells, (B) HT-1080 cells, (C) A375 cells and (D) HLF cells after incubation with PyTPE and TCNTP at concentrations of 1 μM, 5 µM and 10 µM for 48 h. Black bars represent PyTPE, red bars represent TCNTP and blue bars […]
Fig. S22 Fluorescence images of HLF cells treated with 3 µM PyTPE (A) and TCNTP (B) with Hoechst 33258 of each formulation for 12h in cell culturing condition. The white scale […]

[2] = test system: A375 cells co-cultured with MDA-MB-231 cells or HLF cells; assay: Leak-free marking: stained A375 cells co-cultured with unstained cells; assay type: cell-based, human; settings: co-cultured with MDA-MB-231 or HLF cells for 24 h; CLSM
From the text: The cytocompatible nature of TCNTP and its precisely targeted interaction with organelles may account for the leak-free marking inside cells. A375 cells stained by TCNTP were co-cultured with MDA-MB-231 cells or human lung fibroblast (HLF) cells (normal human cell line), in order to evaluate whether TCNTP could be utilized to discriminate between different cell lines. TCNTP could easily stain the MDA-MB-231 cells and HLF cells in monoculture experiment (Fig. S22 ^†).
The excellent intracellular preservation of TCNTP may be used to develop novel fluorescent probes for differentiating specific cancerous cells from normal cells and for tracing diffusion, necrosis, shrinkage and suppression processes of tumor cells.
Fig. 6 The experimental scheme of TCNTP-stained (A) or Hoechst 33258-stained (F) A375 cells co-cultured with unstained cells. The CLSM imaging of co-cultivated TCNTP-stained (B) A375 cells and unstained MDA-MB-231 cells (the blue ellipses) or (D) TCNTP-stained A375 cells and unstained HLF cells (the blue ellipses). The average fluorescence intensity of TCNTP in four partial enlarged views (C and E). […] The average fluorescence intensity of Hoechst 33258 in four partial enlarged views (H and J). The blue fluorescence channel: excitation wavelength, 405 nm; emission collected, 425–485 nm. The yellow fluorescence channel: excitation wavelength, 405 nm; emission collected, 495–575 nm. […]

CN1CCN(c2ccc3[nH]c(-c4ccc5[nH]c(-c6ccc(O)cc6)nc5c4)nc3c2)CC1 [Hoechst 33258]
Active Cells Remaining (number of remaining stained living cells) (A375 cells; 10× microscopic field): 2%
Signal Remaining (fluorescence signal remaining) (A375 cells; 60× microscopic field): 6%
toxicity by MTT assay of cell viability [1]: high toxicity
leakage of dye from stained A375 cells into unstained cells [2]: fast leakage
